How the values were obtained:
Test in all cases: biochemical
Design in all cases: KINOMEscan competition binding panel, per cent of control
Details in all cases: read-out: %Ctrl @ 2800nM
PAK3 = PAK3 (Homo sapiens, UniProt O75914)
Method: (§1) A panel of binding assays covering 450 human kinases and disease-relevant mutations was performed by DiscoverX (KINOMEscan®, Freemont, CA, USA) according to the standard and validated protocol defined by the contractor. […] Kinase binding assays This study was outsourced to DiscoverX (KINOMEscan®, Freemont, CA, USA) and is compliant with the corresponding project BUY004-01-p-00001. […] Results are reported as percent control (% Ctrl), where lower numbers indicate stronger hits in the matrix on the following page(s). %Ctrl calculation: ((test compound signal-positive control signal) / (negative control signal – positive control signal)) x 100.

ALK(C1156Y) = ALK(C1156Y) (Homo sapiens, UniProt Q9UM73, C1156Y)
Method: as §1

MET(Y1235D) = MET(Y1235D) (Homo sapiens, UniProt P08581, Y1235D)
Method: as §1

TEC = TEC (Homo sapiens, UniProt P42680)
Method: as §1

MLK1 = molecular target: T1, MLK1 (Homo sapiens, UniProt P80192)
T1 construct: gene MAP3K9
Method: as §1

MYLK = MYLK (Homo sapiens, UniProt Q15746)
Method: as §1

ACVR2A = ACVR2A (Homo sapiens, UniProt P27037)
Method: as §1

EPHA2 = EPHA2 (Homo sapiens, UniProt P29317)
EPHA2, sequence (P29317 whole entry): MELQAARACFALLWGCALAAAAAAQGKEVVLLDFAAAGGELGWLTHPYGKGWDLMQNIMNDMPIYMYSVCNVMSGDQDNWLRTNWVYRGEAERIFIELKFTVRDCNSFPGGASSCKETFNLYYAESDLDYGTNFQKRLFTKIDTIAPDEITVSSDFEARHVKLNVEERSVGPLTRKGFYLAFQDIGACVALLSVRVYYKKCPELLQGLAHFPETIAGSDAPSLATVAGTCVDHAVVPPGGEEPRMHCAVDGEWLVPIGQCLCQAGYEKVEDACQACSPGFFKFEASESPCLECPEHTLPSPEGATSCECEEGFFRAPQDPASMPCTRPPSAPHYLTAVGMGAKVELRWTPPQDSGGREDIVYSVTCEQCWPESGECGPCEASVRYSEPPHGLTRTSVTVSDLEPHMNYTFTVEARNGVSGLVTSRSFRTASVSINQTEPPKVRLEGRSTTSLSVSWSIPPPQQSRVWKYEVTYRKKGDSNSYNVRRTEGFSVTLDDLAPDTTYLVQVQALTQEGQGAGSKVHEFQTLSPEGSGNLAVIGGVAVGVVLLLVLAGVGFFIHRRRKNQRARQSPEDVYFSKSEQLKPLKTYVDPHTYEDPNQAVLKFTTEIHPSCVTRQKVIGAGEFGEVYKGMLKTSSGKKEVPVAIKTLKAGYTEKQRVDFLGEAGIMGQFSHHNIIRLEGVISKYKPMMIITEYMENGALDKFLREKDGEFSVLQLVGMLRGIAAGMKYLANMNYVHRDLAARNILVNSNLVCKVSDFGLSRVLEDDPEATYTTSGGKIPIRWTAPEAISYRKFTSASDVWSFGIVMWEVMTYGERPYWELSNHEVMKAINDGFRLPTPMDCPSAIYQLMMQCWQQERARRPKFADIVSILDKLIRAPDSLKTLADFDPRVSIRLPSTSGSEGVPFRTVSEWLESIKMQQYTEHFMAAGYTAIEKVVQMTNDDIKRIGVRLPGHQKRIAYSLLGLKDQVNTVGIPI
Method: as §1

CDK5 = CDK5 (Homo sapiens, UniProt Q00535)
CDK5, sequence (Q00535 whole entry): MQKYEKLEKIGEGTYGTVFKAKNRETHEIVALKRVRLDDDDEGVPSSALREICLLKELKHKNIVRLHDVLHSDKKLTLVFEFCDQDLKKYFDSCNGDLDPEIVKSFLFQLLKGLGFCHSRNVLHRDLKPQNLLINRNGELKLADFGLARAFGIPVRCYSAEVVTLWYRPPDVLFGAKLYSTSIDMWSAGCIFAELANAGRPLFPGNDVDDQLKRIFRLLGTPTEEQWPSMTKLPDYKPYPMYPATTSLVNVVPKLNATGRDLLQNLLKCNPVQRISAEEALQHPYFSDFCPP
Method: as §1

DDR2 = DDR2 (Homo sapiens, UniProt Q16832)
Method: as §1

CSNK2A2 = CSNK2A2 (Homo sapiens, UniProt P19784)
Method: as §1

MERTK = MERTK (Homo sapiens, UniProt Q12866)
Method: as §1

MAP3K15 = MAP3K15 (Homo sapiens, UniProt Q6ZN16)
Method: as §1

MARK4 = MARK4 (Homo sapiens, UniProt Q96L34)
MARK4, sequence (Q96L34 whole entry): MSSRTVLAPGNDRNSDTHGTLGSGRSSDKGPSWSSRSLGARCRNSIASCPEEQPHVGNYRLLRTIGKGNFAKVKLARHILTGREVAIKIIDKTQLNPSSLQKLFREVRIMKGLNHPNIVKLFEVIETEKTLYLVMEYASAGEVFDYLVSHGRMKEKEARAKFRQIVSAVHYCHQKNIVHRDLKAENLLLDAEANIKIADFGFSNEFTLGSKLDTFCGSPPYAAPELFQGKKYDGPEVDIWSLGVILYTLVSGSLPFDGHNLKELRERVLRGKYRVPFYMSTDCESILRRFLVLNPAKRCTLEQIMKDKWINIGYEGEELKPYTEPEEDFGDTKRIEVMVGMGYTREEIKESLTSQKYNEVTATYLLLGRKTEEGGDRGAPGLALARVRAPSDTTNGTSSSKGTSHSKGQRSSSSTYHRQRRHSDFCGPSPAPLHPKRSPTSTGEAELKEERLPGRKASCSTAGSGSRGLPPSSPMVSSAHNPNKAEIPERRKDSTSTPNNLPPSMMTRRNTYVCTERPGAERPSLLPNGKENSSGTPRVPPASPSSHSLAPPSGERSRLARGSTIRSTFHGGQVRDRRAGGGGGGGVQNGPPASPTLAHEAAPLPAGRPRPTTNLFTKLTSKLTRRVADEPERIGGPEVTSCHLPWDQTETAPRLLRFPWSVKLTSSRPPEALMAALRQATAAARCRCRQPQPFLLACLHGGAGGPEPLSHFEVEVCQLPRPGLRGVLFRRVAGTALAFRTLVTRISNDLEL
Method: as §1

EGFR(E746-A750del) = EGFR(E746-A750del) (Homo sapiens, UniProt P00533, DEL746-750)
Method: as §1

[1] = molecular target: T2, ABL1(F317I)-nonphosphorylated (Homo sapiens, UniProt P00519, F317I)
T2 construct: nonphosphorylated
Method: as §1

MINK = molecular target: T3, MINK (Homo sapiens, UniProt Q8N4C8)
T3 construct: gene MINK1
Method: as §1

PRKG2 = PRKG2 (Homo sapiens, UniProt Q13237)
PRKG2, sequence (Q13237 whole entry): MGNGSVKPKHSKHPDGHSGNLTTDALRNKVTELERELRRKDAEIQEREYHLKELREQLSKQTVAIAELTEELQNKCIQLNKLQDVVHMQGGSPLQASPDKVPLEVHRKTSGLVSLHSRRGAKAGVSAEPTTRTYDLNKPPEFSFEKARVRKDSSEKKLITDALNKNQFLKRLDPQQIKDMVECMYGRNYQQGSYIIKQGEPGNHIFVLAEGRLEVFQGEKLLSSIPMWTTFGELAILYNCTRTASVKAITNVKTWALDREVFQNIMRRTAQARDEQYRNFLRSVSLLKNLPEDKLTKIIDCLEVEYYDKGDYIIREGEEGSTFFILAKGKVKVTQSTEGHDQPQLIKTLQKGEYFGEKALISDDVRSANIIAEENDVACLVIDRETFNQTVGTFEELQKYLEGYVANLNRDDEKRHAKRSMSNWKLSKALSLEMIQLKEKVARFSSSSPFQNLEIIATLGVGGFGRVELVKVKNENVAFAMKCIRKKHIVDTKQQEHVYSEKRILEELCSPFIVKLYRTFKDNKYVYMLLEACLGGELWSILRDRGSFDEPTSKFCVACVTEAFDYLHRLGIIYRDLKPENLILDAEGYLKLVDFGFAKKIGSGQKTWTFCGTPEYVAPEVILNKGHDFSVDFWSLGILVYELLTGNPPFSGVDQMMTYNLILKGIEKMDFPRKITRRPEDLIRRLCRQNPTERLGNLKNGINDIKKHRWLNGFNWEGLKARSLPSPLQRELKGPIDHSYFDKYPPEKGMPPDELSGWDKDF
Method: as §1

KIT(V559D) = KIT(V559D) (Homo sapiens, UniProt P10721, V559D)
Method: as §1

HPK1 = molecular target: T4, HPK1 (Homo sapiens, UniProt Q92918)
T4 construct: gene MAP4K1
Method: as §1

PKMYT1 = PKMYT1 (Homo sapiens, UniProt Q99640)
PKMYT1, sequence (Q99640 whole entry): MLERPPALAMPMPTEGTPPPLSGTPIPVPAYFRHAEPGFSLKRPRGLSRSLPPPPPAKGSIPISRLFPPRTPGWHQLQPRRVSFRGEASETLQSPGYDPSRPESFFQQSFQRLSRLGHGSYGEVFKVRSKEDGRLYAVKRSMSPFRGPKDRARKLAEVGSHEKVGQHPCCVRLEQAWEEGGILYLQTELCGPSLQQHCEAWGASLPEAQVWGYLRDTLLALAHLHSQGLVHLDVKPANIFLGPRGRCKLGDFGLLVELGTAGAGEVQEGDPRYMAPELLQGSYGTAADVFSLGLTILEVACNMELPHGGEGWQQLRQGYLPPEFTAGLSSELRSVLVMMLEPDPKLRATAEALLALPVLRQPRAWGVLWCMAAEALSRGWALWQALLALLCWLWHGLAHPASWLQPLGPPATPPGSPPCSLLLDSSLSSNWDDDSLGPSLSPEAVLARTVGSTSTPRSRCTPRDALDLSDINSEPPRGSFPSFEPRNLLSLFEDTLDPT
Method: as §1

STK39 = STK39 (Homo sapiens, UniProt Q9UEW8)
Method: as §1

FLT3-autoinhibited = FLT3-autoinhibited (Homo sapiens, UniProt P36888)
Method: as §1

LKB1 = molecular target: T5, LKB1 (Homo sapiens, UniProt Q15831)
T5 construct: gene STK11
T5 sequence (Q15831 whole entry): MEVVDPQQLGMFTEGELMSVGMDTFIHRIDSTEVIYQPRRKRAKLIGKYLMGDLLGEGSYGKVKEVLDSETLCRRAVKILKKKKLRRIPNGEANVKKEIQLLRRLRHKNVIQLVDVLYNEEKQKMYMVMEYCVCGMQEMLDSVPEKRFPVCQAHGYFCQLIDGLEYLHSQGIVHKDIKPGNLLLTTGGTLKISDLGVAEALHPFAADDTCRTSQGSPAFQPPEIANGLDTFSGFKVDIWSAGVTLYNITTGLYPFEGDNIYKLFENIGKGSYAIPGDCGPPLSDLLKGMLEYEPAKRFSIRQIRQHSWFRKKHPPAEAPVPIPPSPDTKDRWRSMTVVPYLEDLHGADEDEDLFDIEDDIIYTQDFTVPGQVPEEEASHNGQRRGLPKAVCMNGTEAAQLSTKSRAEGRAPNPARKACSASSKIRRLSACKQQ
Method: as §1

MST1 = molecular target: T6, MST1 (Homo sapiens, UniProt Q13043)
T6 construct: gene STK4
T6 sequence (Q13043 whole entry): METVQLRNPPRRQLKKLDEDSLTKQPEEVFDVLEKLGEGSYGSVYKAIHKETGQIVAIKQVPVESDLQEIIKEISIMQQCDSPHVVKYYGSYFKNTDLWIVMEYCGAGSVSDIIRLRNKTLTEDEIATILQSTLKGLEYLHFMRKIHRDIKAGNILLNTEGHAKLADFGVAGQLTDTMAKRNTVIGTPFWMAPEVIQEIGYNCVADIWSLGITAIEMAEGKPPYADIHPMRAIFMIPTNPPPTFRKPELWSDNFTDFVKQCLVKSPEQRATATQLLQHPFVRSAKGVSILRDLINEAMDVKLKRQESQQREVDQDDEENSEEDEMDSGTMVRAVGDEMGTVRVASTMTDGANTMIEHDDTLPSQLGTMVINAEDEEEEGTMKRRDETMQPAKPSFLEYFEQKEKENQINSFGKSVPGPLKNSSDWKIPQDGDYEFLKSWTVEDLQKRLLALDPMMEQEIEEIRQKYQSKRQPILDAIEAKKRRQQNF
Method: as §1

[2] = molecular target: T7, ABL1(H396P)-phosphorylated (Homo sapiens, UniProt P00519, H396P)
T7 construct: phosphorylated
Method: as §1

PAK3, sequence (O75914 whole entry): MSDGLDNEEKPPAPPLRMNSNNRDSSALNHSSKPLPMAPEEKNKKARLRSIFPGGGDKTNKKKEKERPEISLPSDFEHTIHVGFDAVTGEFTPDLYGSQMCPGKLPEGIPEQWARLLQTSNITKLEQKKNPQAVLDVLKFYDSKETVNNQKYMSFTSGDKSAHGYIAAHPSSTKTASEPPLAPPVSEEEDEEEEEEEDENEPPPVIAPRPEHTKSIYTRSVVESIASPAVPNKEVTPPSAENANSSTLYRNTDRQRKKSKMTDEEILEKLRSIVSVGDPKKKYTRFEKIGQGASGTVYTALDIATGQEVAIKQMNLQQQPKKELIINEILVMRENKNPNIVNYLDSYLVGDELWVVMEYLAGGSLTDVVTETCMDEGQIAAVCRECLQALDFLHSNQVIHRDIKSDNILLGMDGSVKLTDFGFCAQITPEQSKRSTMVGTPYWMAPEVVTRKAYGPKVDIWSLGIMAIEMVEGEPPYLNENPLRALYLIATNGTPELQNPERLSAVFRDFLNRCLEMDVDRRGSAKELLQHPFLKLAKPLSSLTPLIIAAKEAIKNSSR

[O-][S@@+](Cc1cncs1)C(c1ccccc1)c1ccccc1 [S-CE-123, (S)-5-((Benzhydrylsulfinyl)Methyl)Thiazole]
remaining binding at 2.8 µM (PAK3): 70%
remaining binding at 2.8 µM (ALK(C1156Y)): 100%
remaining binding at 2.8 µM (MET(Y1235D)): 99%
remaining binding at 2.8 µM (TEC): 100%
remaining binding at 2.8 µM (MLK1): 100%
remaining binding at 2.8 µM (MYLK): 96%
remaining binding at 2.8 µM (ACVR2A): 100%
remaining binding at 2.8 µM (EPHA2): 73%
remaining binding at 2.8 µM (CDK5): 97%
remaining binding at 2.8 µM (DDR2): 100%
remaining binding at 2.8 µM (CSNK2A2): 100%
remaining binding at 2.8 µM (MERTK): 63%
remaining binding at 2.8 µM (MAP3K15): 84%
remaining binding at 2.8 µM (MARK4): 98%
remaining binding at 2.8 µM (EGFR(E746-A750del)): 93%
remaining binding at 2.8 µM [1]: 100%
remaining binding at 2.8 µM (MINK): 87%
remaining binding at 2.8 µM (PRKG2): 99%
remaining binding at 2.8 µM (KIT(V559D)): 97%
remaining binding at 2.8 µM (HPK1): 89%
remaining binding at 2.8 µM (PKMYT1): 88%
remaining binding at 2.8 µM (STK39): 100%
remaining binding at 2.8 µM (FLT3-autoinhibited): 99%
remaining binding at 2.8 µM (LKB1): 100%
remaining binding at 2.8 µM (MST1): 97%
remaining binding at 2.8 µM [2]: 90%

From article PMC10046369, “Low-Affinity/High-Selectivity Dopamine Transport Inhibition Sufficient to Rescue Cognitive Functions in the Aging Rat” (Biomolecules, 2023)
